Experimental findings from KR20110128542A, “Egcg를 유효성분으로 함유하는 쇼그렌 증후군, 베체트 증후군, 강직성척추염 또는 루프스의 예방 또는 치료용 조성물” (가톨릭대학교 산학협력단, priority 2010, dated 2011) are described below.

The test system of experiment [1] is IL-17 produced from Th17 cells (Th17세포). As to the kind of experiment: IL-17 production by mouse splenocytes under Th17 differentiation conditions (ELISA of culture medium, 3 days). It counts as cell-based. The note with it: Th17 conditions (anti-CD3, anti-CD28, anti-IFNr, anti-IL-4, TGF beta), EGCG 0, 1, 10, 50 uM, Fig. 1.
Experiment [2] relates to IL-17 mRNA. Briefly: RT-PCR of IL-17 mRNA in mouse splenocytes under Th17 differentiation conditions. The format is cell-based. The note with it: EGCG 0, 1, 10, 50 ng/ml, Fig. 2a.
The subject of experiment [3] is Foxp3 mRNA. As to the kind of experiment: RT-PCR of Foxp3 mRNA in mouse splenocytes under Th17 differentiation conditions (Treg activation). It counts as cell-based. The note with it: EGCG 0, 1, 10, 50 ng/ml, Fig. 2b.
For experiment [4], the system named is Treg cells (Treg 세포). As to the kind of experiment: Treg cells in spleen of lupus syndrome mice, immunostaining (CD4, CD25, Foxp3) and confocal microscopy. The format is in vivo, mouse. The note with it: EGCG 10uM, intraperitoneal, 10 injections, Fig. 3.
Experiment [5] concerns Th17 cells (Th17 세포). Briefly: Th17 cells in spleen of lupus syndrome mice, immunostaining (CD4, IL-17) and confocal microscopy. The format is in vivo, mouse. The conditions noted are these: EGCG 10uM, intraperitoneal, 10 injections, confocal microscopy, Fig. 3.
Experiment [6] concerns Treg cells (Treg 세포). Briefly: Treg population in splenocytes of lupus syndrome mice under Treg differentiation conditions, FACS (CD4, CD25, Foxp3). The conditions noted are these: lupus mouse splenocytes, anti-CD3 2 ug/ml + TGF beta 5ng/ml, EGCG 10ng/ml, 72 h. It counts as cell-based.

“Also recorded” adds a separate entry of the source.

On to `O=C(O[C@@H]1Cc2c(O)cc(O)cc2O[C@@H]1c1cc(O)c(O)c(O)c1)c1cc(O)c(O)c(O)c1` [EGCG, (-)-epigallocatechin gallate], for which the “amount of IL-17 cytokine produced” value in experiment [1] was “EGCG를 처리하지 않은 군에 비해 현저하게 감소; also recorded: EGCG 농도 의존적으로 IL-17의 생성이 감소”. Moreover, the “IL-17 expression (mRNA)” value in experiment [2] is “농도 의존적으로 점점 감소”. Moreover, in experiment [3], the “Foxp3 expression (mRNA)” value is recorded as “EGCG를 처리하지 않은 군에 비해 현저하게 증가; also recorded: 농도 의존적으로 점점 증가”. The “Treg cell activation in spleen” value in experiment [4] (CD4/CD25 co-expression) is “비장에서 Treg 세포가 활성화 되었음”. Besides, in experiment [4] (spleen, confocal microscopy), the “Foxp3 expression in nucleus, compared with control” value is recorded as “대조군에 비해 많이 발현”. Further, the “IL-17 expression (degree of Th17 cell differentiation), compared with control” value in experiment [5] is “EGCG를 처리하지 않은 대조군이 처리한 군에 비해 녹색의 IL-17이 더 많이 발현”. In experiment [6] (Splenocyte, printed 'about 10-fold or more', read-out: increase of Treg cells compared with untreated group), the fold induction at 0.01 µg/mL was at least 10. For the same compound, the Foxp3 expression in experiment [6] (untreated control 2.69, Fig. 4) came out at 21.57.
